Target: T1, myoferlin (MYOF) (Homo sapiens, UniProt Q9NZM1)
T1 construct: C2D domain (F3 construct, amino acids 1116–1272, GST fusion in pGEX4T-1; ~44 kDa in SPR)
T1 sequence (Q9NZM1 1116-1272): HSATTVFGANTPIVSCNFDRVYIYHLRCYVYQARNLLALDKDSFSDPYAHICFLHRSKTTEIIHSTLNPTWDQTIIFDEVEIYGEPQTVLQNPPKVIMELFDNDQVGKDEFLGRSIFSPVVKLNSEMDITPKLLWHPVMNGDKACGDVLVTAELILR
Test: SPR (Biacore X-100, C2D immobilized on CM5 chip); supported by competition pull-down with WJ460-biotin
Type: binding

COc1ccccc1N1C(=O)CSC1c1cccc(C(=O)NCCCCc2ccccc2)c1 (stereo not shown) [WJ460]
Kd: ~1330 nM

From PMC6137146, “A small molecule targeting myoferlin exerts promising anti-tumor effects on breast cancer” (Nature Communications, 2018)
